Tests used:
Bcl-2 = experiment: FP-based competitive binding assay with FAM-Bid; set-up: species or system human; settings: ratio of Ki
Description: FP-based binding assays were developed and optimized to determine the binding affinities of inhibitors to the recombinant Mcl-1, Bcl-2, Bcl-xL, and Bfl-1, proteins. […] The fluorescent Bid probe was fixed at 2 nM for all assays, except for Bfl-1, where 1 nM was used. 5 μL of the tested compound in DMSO and 120 μL of protein/probe complex in the assay buffer were added to assay plates (Corning #3792), incubated at room temperature for 3 h, and the polarization values (mP) were measured at an excitation wavelength of 485 nm and an emission wavelength of 530 nm using the plate reader Synergy H1 Hybrid, BioTek. IC50 values were determined by nonlinear regression fitting of the competition curves (GraphPad Prism 6.0 Software). The Ki values were calculated as described previously.
1. List of compounds purchased from vendors
Compound s 5, 6, 7, 8 and S3, S4, S5, S6 S7, S8, S9, S10, S17 were purchased from […]
Compound s 9, 10, 11 and S11, S12, S13 were purchased from I nterbioscreen […]
His-tagged proteins containing human Mcl-1 (residues 171–323), the isoform 2 construct of the human Bcl-2 [Bcl2-2 construct for protein production starts with the Bcl2 sequence of 1-34 a a, followed by the Bcl-xL seq uence of 35-50 aa, and ends with the Bcl-2 sequenc e of 92-202aa.], Bcl-xL (Human Bcl-xL protein, which has an internal deletion for the 45 -85 amino acid residues and a C -terminal truncation for the amino acid residues 212-233), and Bf l-1 (residues 1-151), were expres sed from the pHis -TEV vector (a modified pET vector) in E. coli BL21 (DE3) cells. Cells were grown at 37 °C in 2×YT containing antibiotics to an OD600 density of 1.5, 1 and 0.8 for Mcl-1, Bcl-xL and Bcl-2 respectively. Protein expression wa s induced by 0 .4 mM IPTG at 20 °C overnight for all proteins except for Bf l-1 which was e xpressed at 3 7 °C for four hours . Cells were lysed in 20 mM HEPES pH 7.5, 200 mM NaCl, 0.1% βME with Leupeptin/Aprotinin (Mcl-1), 25mM Tris pH 8.5, 200mM NaCl (Bcl-2), 50mM Tris pH 7.5, 200 mM NaCl (Bcl-xL) and 50 mM Tris pH 8, 500 mM NaCl, 0. 1% βME with Leupeptin/Aprotinin (Bf l-1). All

[1] = tested on: Eµ-myc lymphoma cells overexpressing Bcl-xL; experiment: Eµ-myc lymphoma cell viability, flow cytometry; format: cell-based, mice; settings: increasing concentrations, 15 h
Description: MEF cells, including wild-type, Bax/Bak double knockout, Bax−/− single knockout, and Bak−/− single knockout were tested and characterized (Supplementary Fig. S3). The cells were cultured in DMEM (Life Technologies), supplemented with 10% fetal bovine serum (FBS) (Thermo Scientific HyClone) and 1% Penicillin/streptomycin solution (Life Technologies). The retrovirally transduced lymphoma cells isolated from Eμ-myc transgenic mice were provided by Ricky W. Johnstone at the University of Melbourne, Melbourne, Australia and cultured as previously described[37],[65].
The Mcl-1, Bcl-2, and Bcl-xL retroviral transduced lymphoma Eμ-myc cells were seeded in 12-well plates at 0.5 × 10^6 cells/well. […] The cells were harvested and stained with violet LIVE/DEAD Fixable Dead Cell Stain Kit (Invitrogen) according to manufacturer’s protocol. The percentage of fluorescent positive cells was determined by flow cytometry and calculated using WinList 3.0.

## O=C(CSc1nnc(-c2ccco2)c(-c2ccco2)n1)Nc1cccc(C(F)(F)F)c1 [Compound 39]
Bcl-2
  fold lower binding affinity to Bcl-2 than to Mcl-1: > 20 fold
[1]
  effect on Eµ-myc cells overexpressing Bcl-xL: minimal effect

Reference: PMC6033896, “Discovery of Mcl-1 inhibitors from integrated high throughput and virtual screening” (Scientific Reports, 2018)
